Experimental findings from US10131652B2, “Pyrimidinyloxy benzene derivatives as herbicides” (E. I. DU PONT DE NEMOURS AND COMPANY, priority 2014, dated 2018) are described below.

Common to all, as to assay: Test B pre-/postemergence plant response
What all share (type): in vivo

The test system of assay [1] is giant foxtail (Setaria faberii). To be noted: 1000 g ai/ha, 0 to 100 scale (0 no effect, 100 complete control); for pest or weed control at 1000 g/ha: Setaria faberi, 240 h, read-out: Plant response rating, Foxtail, Giant. An excerpt: (§1) Seeds of plant species selected from bamyardgrass (Echinochloa crus-galli), kochia (Kochia scoparia), ragweed (common ragweed, Ambrosia elatior), Italian ryegrass (Lolium multiflorum), large (Lg) crabgrass (Digitaria sanguinalis), giant foxtail (Setaria faberii), momingglory (Ipomoea spp.), pigweed (Amaranthus retroflexus), velvetleaf (Abutilon theophrasti), wheat (Triticum aestivum), and corn (Zea mays) were planted into a blend of loam soil and sand and treated preemergence with a directed soil spray using test chemicals formulated in a non-phytotoxic solvent mixture which included a surfactant. At the same time, plants selected from these crop and weed species and also blackgrass (Alopecurus myosuroides), and galium (catchweed bedstraw, Galium aparine) were planted in pots containing the same blend of loam soil and sand and treated with postemergence applications of test chemicals formulated in the same manner. Plants ranged in height from 2 to 10 cm and were in the one- to two-leaf stage for the postemergence treatment. Treated plants and untreated controls were maintained in a greenhouse for approximately 10 days, after which time all treated plants were compared to untreated controls and visually evaluated for injury. Plant response ratings, summarized in Table B, are based on a 0 to 100 scale where 0 is no effect and 100 is complete control. A dash (-) response means no test result.

The subject of assay [2] is corn (Zea mays). The note with it: 1000 g ai/ha, 0 to 100 scale (0 no effect, 100 complete control); for Corn plant response rating (crop injury, 0 = no effect, 100 = complete kill) at 1000 g/ha: Zea mays, 240 h.
Source text: as §1

Assay [3] relates to wheat (Triticum aestivum). To be noted: 1000 g ai/ha, 0 to 100 scale (0 no effect, 100 complete control); for plant injury at 1000 g/ha: Triticum aestivum, 240 h, read-out: Plant response rating, Wheat.
Source text: as §1

Assay [4] deals with velvetleaf (Abutilon theophrasti). To be noted: 1000 g ai/ha, 0 to 100 scale (0 no effect, 100 complete control); for pest or weed control at 1000 g/ha: Abutilon theophrasti, 240 h, read-out: Plant response rating, Velvetleaf.
Source text: as §1

Assay [5] relates to pigweed (Amaranthus retroflexus). To be noted: 1000 g ai/ha, 0 to 100 scale (0 no effect, 100 complete control); for pest or weed control at 1000 g/ha: Amaranthus retroflexus, 240 h, read-out: Plant response rating, Pigweed.
Source text: as §1

The test system of assay [6] is barnyardgrass (Echinochloa crus-galli). The note with it: 1000 g ai/ha, 0 to 100 scale (0 no effect, 100 complete control); for pest or weed control at 1000 g/ha: Echinochloa crus-galli, 240 h, read-out: Plant response rating, Barnyardgrass.
Source text: as §1

The test system of assay [7] is large (Lg) crabgrass (Digitaria sanguinalis). The note with it: 1000 g ai/ha, 0 to 100 scale (0 no effect, 100 complete control); for pest or weed control at 1000 g/ha: Digitaria sanguinalis, 240 h, read-out: Plant response rating, Crabgrass, Large.
Source text: as §1

In assay [8] the test system is morningglory (Ipomoea spp.). The note with it: 1000 g ai/ha, 0 to 100 scale (0 no effect, 100 complete control); for pest or weed control at 1000 g/ha: Ipomoea, 240 h, read-out: Plant response rating, Morningglory.
Source text: as §1

Structures are written as SMILES. Read-outs that look alike come from different tables or passages of the source.

On to `Clc1cnc(Oc2ccccc2-c2cncs2)nc1` [Compound 9], for which the “Plant response rating, Foxtail, Giant” value in assay [1] (Postemergence) is recorded as 20; in assay [1] (Preemergence), 60. The “Plant response rating, Corn” value is 10 in assay [2] (Postemergence) and 0 in assay [2] (Preemergence). Also, the “Plant response rating, Wheat” value in assay [3] (Postemergence) is 10; in assay [3] (Preemergence) it was 0. In addition, the “Plant response rating, Velvetleaf” value in assay [4] (Postemergence) was found to be 40; in assay [4] (Preemergence), 10. Also, the “Plant response rating, Pigweed” value in assay [5] (Postemergence) is listed as 60; in assay [5] (Preemergence), 90. The results for the “Plant response rating, Barnyardgrass” value in assay [6] (Postemergence) and in assay [6] (Preemergence) were 10 and 20, respectively. For the same molecule, the “Plant response rating, Crabgrass, Large” value in assay [7] (Postemergence) was found to be 50; in assay [7] (Preemergence), 70. Moreover, the “Plant response rating, Morningglory” value in assay [8] (Postemergence) turned out to be 50; in assay [8] (Preemergence), 0.

`OCc1cc(-c2ccccc2Oc2ncc(Cl)cn2)no1` [Compound 31, 3-[2-[(5-chloro-2-pyrimidinyl)oxy]phenyl]-5-isoxazolemethanol]: the pest or weed control at 1000 g/ha in assay [1] (post-emergence, Postemergence) came out at 30%; in assay [1] (pre-emergence, Preemergence) it was 30%; in assay [4] (post-emergence, Postemergence), 30%; in assay [4] (pre-emergence, Preemergence) it was 0%; in assay [5] (post-emergence, Postemergence), 30%; in assay [5] (pre-emergence, Preemergence) it was 0%. Also, the pest or weed control at 1000 g/ha amounted to 10% in assay [6] (post-emergence, Postemergence); 0% in assay [6] (pre-emergence, Preemergence); 50% in assay [7] (post-emergence, Postemergence); 80% in assay [7] (pre-emergence, Preemergence); 30% in assay [8] (post-emergence, Postemergence); 0% in assay [8] (pre-emergence, Preemergence). Besides, the Corn plant response rating (crop injury, 0 = no effect, 100 = complete kill) at 1000 g/ha in assay [2] (post-emergence, Postemergence) amounted to 0%; in assay [2] (pre-emergence, Preemergence) it was 0%. Also, the plant injury at 1000 g/ha in assay [3] (post-emergence, Postemergence) came out at 0%; in assay [3] (pre-emergence, Preemergence) it was 0%.

Turning to `CN(C)c1ccc(-c2ccccc2Oc2ncc(Cl)cn2)cn1` [Compound 2], the “Plant response rating, Foxtail, Giant” value in assay [1] (Postemergence) is reported as 0; in assay [1] (Preemergence) it was 10. Moreover, the “Plant response rating, Corn” value in assay [2] (Postemergence) and in assay [2] (Preemergence) was 0 each time. Further, the “Plant response rating, Wheat” value in assay [3] (Postemergence) and in assay [3] (Preemergence) was 0 throughout. The results for the “Plant response rating, Velvetleaf” value in assay [4] (Postemergence) and in assay [4] (Preemergence) were 50 and 20, respectively. For the same molecule, the “Plant response rating, Pigweed” value was determined as 70 in assay [5] (Postemergence) and 100 in assay [5] (Preemergence). The “Plant response rating, Barnyardgrass” value in assay [6] (Postemergence) and in assay [6] (Preemergence) was 0 in each case. The “Plant response rating, Crabgrass, Large” value amounted to 0 in assay [7] (Postemergence) and 10 in assay [7] (Preemergence). Besides, the “Plant response rating, Morningglory” value is 40 in assay [8] (Postemergence) and 0 in assay [8] (Preemergence).

`ClCc1cc(-c2ccccc2Oc2ncc(Cl)cn2)no1` [Compound 34]: the “Plant response rating, Foxtail, Giant” value in assay [1] (Postemergence) was 0; in assay [1] (Preemergence) it was 10. For the same molecule, the “Plant response rating, Corn” value in assay [2] (Postemergence) and in assay [2] (Preemergence) was 0 in each case. Also, the “Plant response rating, Wheat” value in assay [3] (Postemergence) and in assay [3] (Preemergence) was 0 throughout. Moreover, the “Plant response rating, Velvetleaf” value in assay [4] (Postemergence) was 20; in assay [4] (Preemergence), 10. Besides, the results for the “Plant response rating, Pigweed” value in assay [5] (Postemergence) and in assay [5] (Preemergence) were 40 and 100, respectively. For the same molecule, the “Plant response rating, Barnyardgrass” value in assay [6] (Postemergence) and in assay [6] (Preemergence) was 0 each time. Moreover, the “Plant response rating, Crabgrass, Large” value in assay [7] (Postemergence) and in assay [7] (Preemergence) was 10 in each case. The “Plant response rating, Morningglory” value in assay [8] (Postemergence) and in assay [8] (Preemergence) was 0 in each case.

Consider `Clc1cnc(Oc2ccccc2-c2ncco2)nc1` [Compound 61], for which the “Plant response rating, Foxtail, Giant” value in assay [1] (Postemergence) worked out at 0; in assay [1] (Preemergence), 40. Further, the “Plant response rating, Corn” value in assay [2] (Postemergence) and in assay [2] (Preemergence) was 0 each time. The “Plant response rating, Wheat” value in assay [3] (Postemergence) and in assay [3] (Preemergence) was 0 each time. Besides, the “Plant response rating, Velvetleaf” value in assay [4] (Postemergence) was 70; in assay [4] (Preemergence), 50. For the same molecule, the “Plant response rating, Pigweed” value in assay [5] (Postemergence) came to 60; in assay [5] (Preemergence) it was 90. Also, the “Plant response rating, Barnyardgrass” value in assay [6] (Postemergence) was 10; in assay [6] (Preemergence), 20. For the same molecule, the “Plant response rating, Crabgrass, Large” value is 0 in assay [7] (Postemergence) and 50 in assay [7] (Preemergence). Moreover, the “Plant response rating, Morningglory” value came out at 10 in assay [8] (Postemergence) and 0 in assay [8] (Preemergence).

For `Clc1cnc(Oc2ccccc2-c2cnco2)nc1` [Compound 7], the “Plant response rating, Foxtail, Giant” value in assay [1] (Postemergence) and in assay [1] (Preemergence) was 20 in each case. In addition, the “Plant response rating, Corn” value in assay [2] (Postemergence) is listed as 10; in assay [2] (Preemergence), 0. The “Plant response rating, Wheat” value in assay [3] (Postemergence) is given as 10; in assay [3] (Preemergence), 0. The “Plant response rating, Velvetleaf” value in assay [4] (Postemergence) and in assay [4] (Preemergence) was 10 in each case. Also, the “Plant response rating, Pigweed” value stood at 20 in assay [5] (Postemergence) and 40 in assay [5] (Preemergence). Further, the “Plant response rating, Barnyardgrass” value in assay [6] (Postemergence) and in assay [6] (Preemergence) was 10 throughout. The figures for the “Plant response rating, Crabgrass, Large” value in assay [7] (Postemergence) and in assay [7] (Preemergence) were 20 and 40, respectively. Moreover, the results for the “Plant response rating, Morningglory” value in assay [8] (Postemergence) and in assay [8] (Preemergence) were 40 and 0, respectively.

On to `Clc1cnc(Oc2ccccc2-c2ncc(Cl)cn2)nc1` [Compound 3], for which the “Plant response rating, Foxtail, Giant” value worked out at 20 in assay [1] (Postemergence) and 70 in assay [1] (Preemergence). Further, the “Plant response rating, Corn” value in assay [2] (Postemergence) is 10; in assay [2] (Preemergence), 0. Also, the “Plant response rating, Wheat” value in assay [3] (Postemergence) was 10; in assay [3] (Preemergence) it was 0. The “Plant response rating, Velvetleaf” value is on record as 100 in assay [4] (Postemergence) and 90 in assay [4] (Preemergence). The “Plant response rating, Pigweed” value in assay [5] (Postemergence) is listed as 70; in assay [5] (Preemergence), 50. Further, the “Plant response rating, Barnyardgrass” value in assay [6] (Postemergence) was determined as 50; in assay [6] (Preemergence), 60. Moreover, the results for the “Plant response rating, Crabgrass, Large” value in assay [7] (Postemergence) and in assay [7] (Preemergence) were 10 and 40, respectively. Moreover, the “Plant response rating, Morningglory” value in assay [8] (Postemergence) is 60; in assay [8] (Preemergence), 0.
